Assay [1] deals with T1, human TLR7 (Homo sapiens, UniProt Q9NYK1).
T1 construct: expressed in transfected cells; host or cells: HEK293
T1 sequence (Q9NYK1 27-1049): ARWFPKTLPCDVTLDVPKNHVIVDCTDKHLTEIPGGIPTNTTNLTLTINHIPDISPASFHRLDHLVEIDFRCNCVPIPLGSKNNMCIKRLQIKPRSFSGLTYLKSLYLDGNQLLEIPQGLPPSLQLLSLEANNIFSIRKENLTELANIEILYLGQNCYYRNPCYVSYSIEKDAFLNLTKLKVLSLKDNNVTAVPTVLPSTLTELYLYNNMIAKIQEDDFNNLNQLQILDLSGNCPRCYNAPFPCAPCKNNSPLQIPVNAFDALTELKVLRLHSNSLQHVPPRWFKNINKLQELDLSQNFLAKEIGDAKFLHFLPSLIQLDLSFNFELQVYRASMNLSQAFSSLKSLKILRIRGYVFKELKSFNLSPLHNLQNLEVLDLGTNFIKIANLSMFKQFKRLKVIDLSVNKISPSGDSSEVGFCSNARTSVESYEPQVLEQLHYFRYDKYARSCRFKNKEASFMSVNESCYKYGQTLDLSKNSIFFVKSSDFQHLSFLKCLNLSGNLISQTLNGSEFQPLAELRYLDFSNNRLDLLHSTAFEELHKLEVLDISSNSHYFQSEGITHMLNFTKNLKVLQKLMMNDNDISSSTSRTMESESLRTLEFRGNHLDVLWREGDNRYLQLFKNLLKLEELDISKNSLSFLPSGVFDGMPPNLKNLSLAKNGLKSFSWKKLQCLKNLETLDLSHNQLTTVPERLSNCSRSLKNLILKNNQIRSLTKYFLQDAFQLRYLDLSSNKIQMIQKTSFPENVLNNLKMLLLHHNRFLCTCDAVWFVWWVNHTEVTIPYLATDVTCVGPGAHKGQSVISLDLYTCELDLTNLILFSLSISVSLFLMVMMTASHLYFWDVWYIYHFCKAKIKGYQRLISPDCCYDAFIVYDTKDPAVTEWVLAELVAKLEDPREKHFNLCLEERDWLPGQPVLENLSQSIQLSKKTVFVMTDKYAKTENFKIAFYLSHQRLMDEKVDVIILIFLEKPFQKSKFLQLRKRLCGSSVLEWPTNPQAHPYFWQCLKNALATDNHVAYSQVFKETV
Nature of the assay: TLR7 wild type NFκB-luc cellular reporter assay. It is filed as cell-based. Also on record: unit not given here. As to conditions: HEK293 NFκB-luc reporter, 6 hours incubation; second part of table. How it is done:
The ability of compounds to activate human TLR7 and/or TLR8 was assessed in a cellular reporter assay using HEK293 cells transiently transfected with a TLR7 or TLR8 expression vector and NFκB-luc reporter construct. In one instance the TLR expression construct expresses the respective wild type sequence or a mutant sequence comprising a deletion in the second leucine-rich repeat of the TLR.
Briefly, HEK293 cells were grown in culture medium (DMEM supplemented with 10% FCS and 2 mM Glutamine). For transfection of cells in 10 cm dishes, cells were detached with Trypsin-EDTA, transfected with a mix of CMV-TLR7 or TLR8 plasmid (750 ng), NFκB-luc plasmid (375 ng) and a transfection reagent and incubated 24 hours at 37° C. in a humidified 5% CO2 atmosphere. Transfected cells were then detached with Trypsin-EDTA, washed in PBS and resuspended in medium to a density of 1.67×10^5 cells/mL. Thirty microliters of cells were then dispensed into each well in 384-well plates, where 10 μL of compound in 4% DMSO was already present. […] Dose response curves were generated from measurements performed in quadruplicates. Lowest effective concentrations (LEC) values, defined as the concentration that induces an effect which is at least two fold above the standard deviation of the assay, were determined for each compound.
In general terms: Reporter assays use an easily measured gene product as a stand-in for the process of interest.

Assay [2] deals with interferon-stimulated responsive elements (ISRE). Nature of the assay: Activation of ISRE promoter elements by conditioned media from PBMC (HEK-ISREluc). It counts as cell-based, human. Also noted: unit not given here. To be noted: compound applied to PBMCs, supernatant transferred to HEK-ISREluc cells, 24 hours. How it is done:
The potential of compounds to induce IFN-I was also evaluated by measuring the activation of interferon-stimulated responsive elements (ISRE) by conditioned media from PBMC. The ISRE element of sequence GAAACTGAAACT is highly responsive to the STAT1-STAT2-IRF9 transcription factor, activated upon binding of IFN-I to their receptor IFNAR (Clontech, PT3372-5W). The plasmid pISRE-Luc from Clontech (ref. 631913) contains 5 copies of this ISRE element, followed by the firefly luciferase ORF. A HEK293 cell line stably transfected with pISRE-Luc (HEK-ISREluc) was established to profile of the conditioned PBMC cell culture media.
Briefly, PBMCs were prepared from buffy coats of at least two donors using a standard Ficoll centrifugation protocol. Isolated PBMCs were resuspended in RPMI medium supplemented with 10% human AB serum and 2×10^5 cells/well were dispensed into 384-well plates containing compounds (70 μL total volume). After overnight incubation, 10 μL of supernatant was transferred to 384-well plates containing 5×10^3 HEK-ISREluc cells/well in 30 μL (plated the day before). Following 24 hours of incubation, activation of the ISRE elements was measured by assaying luciferase activity using 40 μL/well Steady Lite Plus substrate (Perkin Elmer) and measured with ViewLux ultraHTS microplate imager (Perkin Elmer). The stimulating activity of each compound on the HEK-ISREluc cells was reported as LEC value, defined as the compound concentration applied to the PBMCs resulting in a luciferase activity at least two fold above the standard deviation of the assay. The LEC in turn indicates the degree of ISRE activation on transfer of a defined amount of PBMC culture medium. Recombinant interferon α-2a (Roferon-A) was used as a standard control compound.

Regarding `CCCCNc1nc(N)nc2ccc(OC)cc12` [Compound 40], the “TLR7-wt (LEC)” value in assay [1] came out at 5.64. Moreover, the “HEK-ISRE luc (LEC)” value in assay [2] came out at 2.44.
`CCCCNc1nc(N)nc2cccc(Cl)c12` [Compound 41]: in assay [1], the “TLR7-wt (LEC)” value was 0.99. Also, the “HEK-ISRE luc (LEC)” value in assay [2] is 0.17.
Regarding `CCCCNc1nc(N)nc2cc(F)c(F)cc12` [Compound 42], the “TLR7-wt (LEC)” value in assay [1] came out at 1.81. The “HEK-ISRE luc (LEC)” value in assay [2] is 0.26.
For `CCC[C@@H](CO)Nc1nc(N)nc2c(C)cccc12` [Compound 43] the same measures were 4.54 and 0.59.
The matching figures for `CCC[C@@H](CO)Nc1nc(N)nc2cc(C)ccc12` [Compound 44]: 0.43 and 0.09.
For `CCC[C@@H](CO)Nc1nc(N)nc2ccc(C)cc12` [Compound 45] the same measures were 0.41 and 0.04.
Take `CCC[C@@H](CO)Nc1nc(N)nc2cccc(C)c12` [Compound 46]: the “TLR7-wt (LEC)” value in assay [1] is listed as 0.77. Besides, in assay [2], the “HEK-ISRE luc (LEC)” value amounted to 0.07.
Regarding `CCC[C@@H](CO)Nc1nc(N)nc2c(F)cccc12` [Compound 47], in assay [1], the “TLR7-wt (LEC)” value came to 0.67. The “HEK-ISRE luc (LEC)” value in assay [2] is reported as 0.05.
`CCC[C@@H](CO)Nc1nc(N)nc2cc(F)ccc12` [Compound 48]: the “TLR7-wt (LEC)” value in assay [1] is recorded as 0.54. Further, the “HEK-ISRE luc (LEC)” value in assay [2] turned out to be 0.02.
As to `CCC[C@@H](CO)Nc1nc(N)nc2ccc(F)cc12` [Compound 49], the “TLR7-wt (LEC)” value in assay [1] turned out to be 2.09. Moreover, the “HEK-ISRE luc (LEC)” value in assay [2] came to 0.13.
`CCC[C@@H](CO)Nc1nc(N)nc2cccc(F)c12` [Compound 50]: the “TLR7-wt (LEC)” value in assay [1] turned out to be 0.32. Also, the “HEK-ISRE luc (LEC)” value in assay [2] was 0.01.
Turning to `CCCC[C@@H](CO)Nc1nc(N)nc2ccc(C)cc12` [Compound 51], in assay [1], the “TLR7-wt (LEC)” value is given as 0.60. In addition, the “HEK-ISRE luc (LEC)” value in assay [2] was 0.09.
Consider `CCCC[C@@H](CO)Nc1nc(N)nc2cccc(C)c12` [Compound 52], for which the “TLR7-wt (LEC)” value in assay [1] is 0.41. In assay [2], the “HEK-ISRE luc (LEC)” value amounted to 0.03.
`CCC[C@@H](CCO)Nc1nc(N)nc2cc(C)ccc12` [Compound 53]: the “TLR7-wt (LEC)” value in assay [1] came out at 0.06. Further, in assay [2], the “HEK-ISRE luc (LEC)” value is on record as 0.02.
Turning to `CCC[C@@H](CCO)Nc1nc(N)nc2ccc(C)cc12` [Compound 54], the “TLR7-wt (LEC)” value in assay [1] amounted to 0.54. The “HEK-ISRE luc (LEC)” value in assay [2] is listed as 0.18.
`CCC[C@@H](CO)Nc1nc(N)nc2cc(OC)ccc12` [Compound 56]: in assay [1], the “TLR7-wt (LEC)” value is 0.39. Moreover, the “HEK-ISRE luc (LEC)” value in assay [2] came to 0.09.
On to `CCC[C@@H](CO)Nc1nc(N)nc2ccc(OC)cc12` [Compound 57], for which the “TLR7-wt (LEC)” value in assay [1] turned out to be 10.77. In assay [2], the “HEK-ISRE luc (LEC)” value is 2.08.
Take `CCC[C@@H](CO)Nc1nc(N)nc2cccc(OC)c12` [Compound 58]: the “TLR7-wt (LEC)” value in assay [1] stood at 0.18. Also, the “HEK-ISRE luc (LEC)” value in assay [2] is 0.04.
The matching figures for `CCCC[C@@H](CO)Nc1nc(N)nc2c(F)cccc12` [Compound 59]: 0.29 and 0.05.
The matching figures for `CCCC[C@@H](CO)Nc1nc(N)nc2cc(F)ccc12` [Compound 60]: 0.23 and 0.02.
Regarding `CCCC[C@@H](CO)Nc1nc(N)nc2ccc(F)cc12` [Compound 61], the “TLR7-wt (LEC)” value in assay [1] was 0.57. For the same compound, in assay [2], the “HEK-ISRE luc (LEC)” value is on record as 0.12.
The matching figures for `CCCC[C@@H](CO)Nc1nc(N)nc2cccc(F)c12` [Compound 62]: 0.75 and 0.03.
The matching figures for `CCC[C@@H](CCO)Nc1nc(N)nc2c(F)cccc12` [Compound 63]: 0.29 and 0.04.
`CCC[C@@H](CCO)Nc1nc(N)nc2cc(F)ccc12` [Compound 64]: in assay [1], the “TLR7-wt (LEC)” value was 0.11. Also, in assay [2], the “HEK-ISRE luc (LEC)” value was determined as 0.04.
Turning to `CCC[C@@H](CCO)Nc1nc(N)nc2ccc(F)cc12` [Compound 65], the “TLR7-wt (LEC)” value in assay [1] was determined as 0.94. Also, the “HEK-ISRE luc (LEC)” value in assay [2] was found to be 0.56.
With `CCC[C@@H](CCO)Nc1nc(N)nc2cccc(F)c12` [Compound 66], the “TLR7-wt (LEC)” value in assay [1] is reported as 0.22. Moreover, the “HEK-ISRE luc (LEC)” value in assay [2] came to 0.06.
For `CC[C@H](C)[C@@H](CO)Nc1nc(N)nc2c(F)cccc12` [Compound 67] the same measures were 2.50 and 0.21.
For the compound `CC[C@H](C)[C@@H](CO)Nc1nc(N)nc2ccc(F)cc12` [Compound 68], the “TLR7-wt (LEC)” value in assay [1] is given as 4.57. In addition, the “HEK-ISRE luc (LEC)” value in assay [2] turned out to be 0.64.
Consider `CCC[C@@H](CO)Nc1nc(N)nc2c(Cl)cccc12` [Compound 69], for which the “TLR7-wt (LEC)” value in assay [1] stood at 7.48. The “HEK-ISRE luc (LEC)” value in assay [2] is 0.73.
As for `CCC[C@@H](CO)Nc1nc(N)nc2cc(Cl)ccc12` [Compound 70], the “TLR7-wt (LEC)” value in assay [1] turned out to be 0.41. In addition, in assay [2], the “HEK-ISRE luc (LEC)” value is 0.01.
`CCC[C@@H](CO)Nc1nc(N)nc2cccc(Cl)c12` [Compound 71]: the “TLR7-wt (LEC)” value in assay [1] turned out to be 1.02. Also, the “HEK-ISRE luc (LEC)” value in assay [2] amounted to 0.03.
In the case of `CCC[C@@H](CO)Nc1nc(N)nc2cc(F)c(F)cc12` [Compound 72], the “TLR7-wt (LEC)” value in assay [1] is 2.59. Moreover, the “HEK-ISRE luc (LEC)” value in assay [2] is 0.05.
Regarding `CCCC[C@@H](CCO)Nc1nc(N)nc2cc(C)ccc12` [Compound 73], in assay [1], the “TLR7-wt (LEC)” value amounted to 0.03. Further, the “HEK-ISRE luc (LEC)” value in assay [2] is given as 0.02.
Turning to `CCCC[C@@H](CCO)Nc1nc(N)nc2ccc(C)cc12` [Compound 74], in assay [1], the “TLR7-wt (LEC)” value was found to be 0.44. Also, the “HEK-ISRE luc (LEC)” value in assay [2] was 0.14.
For the compound `CCCC[C@@H](CCO)Nc1nc(N)nc2cccc(C)c12` [Compound 75], the “TLR7-wt (LEC)” value in assay [1] is 0.14. The “HEK-ISRE luc (LEC)” value in assay [2] is listed as 0.02.
In the case of `CCCC[C@@H](CO)Nc1nc(N)nc2cc(OC)ccc12` [Compound 76], in assay [1], the “TLR7-wt (LEC)” value is recorded as 0.26. In assay [2], the “HEK-ISRE luc (LEC)” value is given as 0.09.
For `CCCC[C@@H](CO)Nc1nc(N)nc2ccc(OC)cc12` [Compound 77], the “TLR7-wt (LEC)” value in assay [1] was 3.48. Besides, in assay [2], the “HEK-ISRE luc (LEC)” value was 1.93.
`CCC[C@@H](CCO)Nc1nc(N)nc2cc(OC)ccc12` [Compound 78]: in assay [1], the “TLR7-wt (LEC)” value was 0.20. For the same compound, the “HEK-ISRE luc (LEC)” value in assay [2] was 0.04.
For `CCC[C@@H](CCO)Nc1nc(N)nc2ccc(OC)cc12` [Compound 79] the same measures were 11.87 and 2.07.

For the origin of these results see US8916575B2, “Quinazoline derivatives for the treatment of viral infections and further diseases” (Janssen R&D Ireland, priority 2011, dated 2014).
